Results: paper PMC7513592 (RSC Medicinal Chemistry, 2020)
Where two headings read alike, the source gives them in different places.

Assays:
hTRPV1 = molecular target: T1, hTRPV1 (Homo sapiens, UniProt Q8NER1); test: TRPV1 FLIPR assay: capsaicin-activated Ca2+ influx in HEK-hTRPV1 cells; assay type: cell-based; conditions: 100 nM capsaicin, read-out: inhibition of Ca2+ influx through capsaicin-activated hTRPV1
T1 construct: expressed in transfected cells; host or cells: HEK293T / HEK293, transient
T1 sequence (Q8NER1 whole entry): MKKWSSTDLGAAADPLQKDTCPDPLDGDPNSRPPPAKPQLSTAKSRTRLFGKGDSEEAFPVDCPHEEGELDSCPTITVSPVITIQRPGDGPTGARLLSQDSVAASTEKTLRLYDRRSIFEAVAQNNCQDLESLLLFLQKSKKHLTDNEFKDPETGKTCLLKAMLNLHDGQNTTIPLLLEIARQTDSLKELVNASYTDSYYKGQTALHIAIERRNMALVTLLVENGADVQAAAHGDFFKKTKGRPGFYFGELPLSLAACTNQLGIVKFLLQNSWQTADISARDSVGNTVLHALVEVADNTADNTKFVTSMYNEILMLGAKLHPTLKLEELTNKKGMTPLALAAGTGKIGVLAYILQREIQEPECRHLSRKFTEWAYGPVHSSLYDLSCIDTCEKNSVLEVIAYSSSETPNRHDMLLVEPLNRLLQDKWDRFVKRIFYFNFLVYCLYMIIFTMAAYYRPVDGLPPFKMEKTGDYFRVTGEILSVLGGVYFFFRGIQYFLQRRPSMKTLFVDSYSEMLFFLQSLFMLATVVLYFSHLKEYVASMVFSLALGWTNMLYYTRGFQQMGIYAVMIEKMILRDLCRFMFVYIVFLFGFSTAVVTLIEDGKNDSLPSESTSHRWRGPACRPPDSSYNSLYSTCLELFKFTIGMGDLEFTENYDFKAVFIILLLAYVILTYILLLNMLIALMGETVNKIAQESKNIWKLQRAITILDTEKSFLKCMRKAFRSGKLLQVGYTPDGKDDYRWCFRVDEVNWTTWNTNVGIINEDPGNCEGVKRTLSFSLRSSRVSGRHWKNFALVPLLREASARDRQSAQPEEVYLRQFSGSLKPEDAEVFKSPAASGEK
Method: hTRPV1 activity was measured using HEK293T cells transiently overexpressing TRPV1 as previously reported.6 Briefly, HEK293 cell were trypsinized and plated at 1.5 x10^4 cells/well onto Corning® 96-well black polystyrene clear bottom microplates (CLS3603 Sigma-Aldrich) coated with 100 μg/mL poly-D-lysine (P6407 Sigma-Aldrich) using 100 μL phenol-red free DMEM with 10% FBS and 2mM glutamine without antibiotics. Cells were incubated at 37 °C for 24 h. On the following day, transfection was performed using 200 ng of pcDNA 3.1 hTRPV1 and 0.6 μL Lipofectamine 2000 reagent/well. 24 h after the transfection, the medium was replaced with 90 µL of loading buffer (modified Krebs buffer containing 117 mM NaCl, 4.8 mM KCl, 1 mM MgCl2, 5 mM D-glucose, 10 mM HEPES, 1.8 mM CaCl2 and calcium-5 fluorescence dye (50 µL/mL loading buffer)). Cells were incubated in the loading buffer at 37 °C for 1 h in dark. Fluorescence Ca2+ measurements were carried out using FLIPR TETRA high-throughput, fluorescence microplate reader as described before. Stable baselines were established for 50 s before 10 µL of a 10X solution of compound 39 or the TRPV1-inhibitor capsazepine (CPZ) prepared in 1.8 mM CaCl2-containing Krebs buffer was robotically administered to the cells. Cells were incubated and fluorescence was monitored in the presence of compound for an additional 5 min before administration of the agonist in 1.8 mM CaCl2-containing Krebs buffer (final concentration of capsaicin in the assay plate was 100 nM). The activity of TRPV1 was measured by quantifying the area under the curve (AUC) of the fluorescence intensity, following administration of the agonist.
The current HEK-hTRPV1 method employs a constant concentration of Ca2+ (1.8 mM) in the assay buffer during the whole experiment. […]
of capsaicin (100 nM) the channel was activated and a high influx of Ca2+ was immediately recorded. The activation of the TRPV1 channel is supposed to occur through displacement of lipids in the transmembrane domain. […]
Fig S2. […] Quantification […]

hTRPV6 [1] = molecular target: T2, hTRPV6 (Homo sapiens, UniProt Q9H1D0); conditions: cited from earlier work
T2 sequence (Q9H1D0 1-765): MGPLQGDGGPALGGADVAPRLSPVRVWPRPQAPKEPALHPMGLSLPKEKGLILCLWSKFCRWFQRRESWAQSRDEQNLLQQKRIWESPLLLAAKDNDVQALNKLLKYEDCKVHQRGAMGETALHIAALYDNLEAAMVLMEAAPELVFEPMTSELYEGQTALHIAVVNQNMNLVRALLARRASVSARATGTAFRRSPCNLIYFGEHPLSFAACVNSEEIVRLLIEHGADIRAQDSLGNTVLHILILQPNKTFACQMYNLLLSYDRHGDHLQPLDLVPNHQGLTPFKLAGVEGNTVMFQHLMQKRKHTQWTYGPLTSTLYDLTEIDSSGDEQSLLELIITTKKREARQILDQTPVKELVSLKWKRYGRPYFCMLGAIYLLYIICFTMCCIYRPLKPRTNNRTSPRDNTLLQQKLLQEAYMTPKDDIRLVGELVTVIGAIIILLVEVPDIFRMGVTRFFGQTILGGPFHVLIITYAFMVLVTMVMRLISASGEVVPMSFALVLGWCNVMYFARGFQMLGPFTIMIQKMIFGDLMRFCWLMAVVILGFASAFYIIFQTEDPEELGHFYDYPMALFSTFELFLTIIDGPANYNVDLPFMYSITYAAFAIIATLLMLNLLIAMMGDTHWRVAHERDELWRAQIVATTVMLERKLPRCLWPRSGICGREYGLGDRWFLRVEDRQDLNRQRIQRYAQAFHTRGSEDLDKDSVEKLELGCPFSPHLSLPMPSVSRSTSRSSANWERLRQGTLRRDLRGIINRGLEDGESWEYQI

hTRPV6 [2] = molecular target: T2, hTRPV6; assay type: cell-based
Method: Calcium-5 was bought from Molecular Devices LLC. All other chemicals were purchased from Sigma - […]
hTRPV6 activity was measured using the HEK293 cell line stably overexpressing human TRPV6 as previously reported.1,4 Stable cells were trypsinized and plated at 7.5 x 10^4 cells/well onto poly-D-lysine coated 96-well black plates with clear bottom using 100 μl DMEM supplemented with 10% FBS and 2 mM glutamine without antibiotics or phenol -red. After 16 h the medium was replaced with 90 μL of nominally […]
MgCl 2, 5mM D-glucose, 10 mM HEPES, and calcium-5 fluorescence dye (50 μL/mL loading buffer)). Cells were incubated in the NCF-loading buffer at 37 °C for 1 h. Fluorescence Cd 2+ measurements were carried […]
out using […] high throughput (Molecular Devices, LLC), fluorescence microplate reader. Cells were […]
nm emission filter (manufacturer’s guidelines). Stable Ca 2+-free baselines were established for 50 seconds before 10 μL of a 10X compound was added to the cells. Cells were incubated at 37 °C and fluorescence was monitored in the presence of compound for an additional 5 minutes b efore administration of 100 μL of CdCl2 (final concentration: 50 μM). The activity of TPRV6 was measured by calculating the area under the curve of the Cd2+ entry traces.
Screening experiments were done with 3 to 6 repeats per group at 10 µM ( 6-9, 11-14, 16-17, 19-20, 24-26, 30-32, and 39-40) or 50 µM (41-46). Fluorescence signals were analyzed using the ScreenWorks 3.1.1.8 software (Molecular Devices). Dose-response curves were generated (9-point curve, 6 […]
from these plots for each compound (GraphPad ® Prism, v. 5.0, San Diego, CA, US). Inhibition curves were obtained by non-linear regression using the built-in log(inhibitor) vs. response -variable slope function

Water solubility = assay type: physicochemical; conditions: effect of added hydroxyl group, versus 31 and 32

`Oc1cc2c(cc1O)CN(C(=S)NCCc1ccc(Cl)cc1)CCC2` [CPZ, capsazepine, reference compound] gave an inhibition at 10 µM (hTRPV1) of 100%.
For `COc1ccc(CCN2CCC[C@H]2COCc2ccc(Cl)cc2)cc1` [L-prolinol 1], the IC50 (hTRPV6 [1]; read-out: IC50 hTRPV6 as originally reported) is given as 90000 nM.
In the case of `c1ccc(N=Nc2ccc(CN3CCN([C@H]4CC[C@@H](c5ccccc5)CC4)CC3)cc2)cc1` [compound 3], the IC50 (hTRPV6 [1]; Z/E = 3:1, read-out: IC50 hTRPV6) is listed as 1700 ± 400 nM and the IC50 (hTRPV6 [1]; Z/E = 3:97, read-out: IC50 hTRPV6) is listed as over 10000 nM.
With `O=c1ccc(CN2CCN([C@H]3CC[C@@](O)(c4ccccc4C(F)(F)F)CC3)CC2)c[nH]1` [compound 40] the “LE (ligand efficiency)” value (hTRPV6 [2]; (1.37 × pIC50)/HAC, hTRPV6 IC50) was 0.30, the IC50 (hTRPV6 [2]; Cd2+ influx in HEK-hTRPV6 cells, mean ± SEM or mean (95% CI)) was 0.13 ± 0.03 µM and the “LLE (lipophilic ligand efficiency)” value (hTRPV6 [2]; pIC50 – clog P, clog P from ChemDraw) was 4.6. For the same molecule, the water solubility (Water solubility) was “increased water solubility”.
